In patent US20260297042A1, “BIARYLAMIDE DERIVATIVES AND THEIR USE AS PKMYT1 INHIBITORS” (CANCER RESEARCH TECHNOLOGY LIMITED, priority 2023, published 2026):
Where a name gives a salt, the structure may show the parent alone.

What was measured:
Human PKMYT1 = biological target: T1, Human PKMYT1 (Homo sapiens, UniProt Q99640); experiment: PKMYT1 biochemical ADP-Glo enzymatic assay; conditions: ADP-Glo; 15 nM PKMYT1 kinase domain, 500 µM ATP, 60 minutes at 26° C.; banded
T1 construct: Human PKMYT1 75-362 was cloned as a TEV cleavable 6xHis fusion; 6xHis (TEV cleavable) (cleaved yes); made in house; host or cells: bacterial cells
T1 sequence (Q99640 75-362): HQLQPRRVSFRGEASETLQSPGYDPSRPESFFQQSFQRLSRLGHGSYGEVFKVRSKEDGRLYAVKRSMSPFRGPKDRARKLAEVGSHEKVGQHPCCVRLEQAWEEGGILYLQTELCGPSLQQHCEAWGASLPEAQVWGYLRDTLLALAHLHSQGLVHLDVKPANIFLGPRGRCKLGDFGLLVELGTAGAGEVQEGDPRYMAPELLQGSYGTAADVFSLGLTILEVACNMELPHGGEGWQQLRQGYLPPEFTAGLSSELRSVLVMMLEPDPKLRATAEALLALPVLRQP
In short: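 Purified untagged human PKMYT1 75-362 at 15 nM final was tested in HEPES pH 7.5 with MgCl2, EGTA, Brij-35 and 1% DMSO. Intrinsic ATPase activity was measured with 500 uM ATP over 60 min at 26° C. ADP-Glo luminescence was read and IC50 fitted from 10-point, 3-fold dilution curves.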

WEE1 = biological target: T2, WEE1 (Homo sapiens, UniProt P30291); experiment: Selectivity versus WEE1 assay (ADP-Glo enzymatic assay); format: biochemical; conditions: banded; for IC50: ADP-Glo, 15 nM WEE1, 60 minutes at 26° C.; for PKMYT1 vs. WEE1 selectivity: fold difference in selectivity for PKMYT1 over WEE1, ">N" = at least in this band but could be higher
T2 construct: purchased Thermo Fisher PR7373A
T2 sequence (P30291 whole entry): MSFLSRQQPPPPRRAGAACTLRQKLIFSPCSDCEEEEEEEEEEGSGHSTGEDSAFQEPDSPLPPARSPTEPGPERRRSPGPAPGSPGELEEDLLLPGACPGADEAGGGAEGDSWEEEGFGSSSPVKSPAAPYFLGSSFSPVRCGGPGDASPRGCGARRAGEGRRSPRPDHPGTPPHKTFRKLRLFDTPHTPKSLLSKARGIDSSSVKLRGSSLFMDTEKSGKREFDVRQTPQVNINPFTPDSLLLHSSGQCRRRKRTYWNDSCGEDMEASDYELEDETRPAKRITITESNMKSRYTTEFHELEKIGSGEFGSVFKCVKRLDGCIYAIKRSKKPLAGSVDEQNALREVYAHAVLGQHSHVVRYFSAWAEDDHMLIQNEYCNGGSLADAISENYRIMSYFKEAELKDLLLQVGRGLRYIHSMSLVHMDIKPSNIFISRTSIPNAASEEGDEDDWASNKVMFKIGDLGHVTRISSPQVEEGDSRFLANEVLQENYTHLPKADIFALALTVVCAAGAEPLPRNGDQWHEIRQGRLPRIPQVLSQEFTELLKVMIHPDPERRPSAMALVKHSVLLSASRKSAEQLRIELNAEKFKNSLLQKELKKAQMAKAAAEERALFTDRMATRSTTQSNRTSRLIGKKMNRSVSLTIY
In short: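 WEE1 at 15 nM final in 50 mM HEPES pH 7.5, 10 mM MgCl2, 1 mM EGTA, 0.01% Brij-35, 1% DMSO; reaction started with 30 µM ATP, 60 min at 26 °C. ADP-Glo luminescence; IC50 from dose-response curves, replicates within 3-fold and r2 >0.9.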

SMILES | IC50 (Human PKMYT1) [µM] | IC50 (WEE1) [µM] | PKMYT1 vs. WEE1 selectivity (WEE1)
Cc1cn(C2CN(C(=O)OC(C)(C)C)C2)nc1Nc1ncc(C(=O)Nc2c(C)ccc(O)c2C)s1 [BAA-272, tert-butyl 3-(3-((5-((3-hydroxy-2,6-dimethylphenyl)carbamoyl)thiazol-2-yl)amino)-4-methyl-1H-pyrazol-1-yl)azetidine-1-carboxylate] | < 0.05 | 0.05 to 1 | W (10-<100 fold)
Cc1cn(C2CNC2)nc1Nc1ncc(C(=O)Nc2c(C)ccc(O)c2C)s1 [BAA-273, 2-((1-(azetidin-3-yl)-4-methyl-1H-pyrazol-3-yl)amino)-N-(3-hydroxy-2,6-dimethylphenyl)thiazole-5-carboxamide hydrochloride] | < 0.05 | 0.05 to 1 | W (10-<100 fold)
Cc1ccc(O)c(C)c1NC(=O)c1cnc(Nc2ccc(S(C)(=O)=O)cc2)s1 [BAA-275, N-(3-Hydroxy-2,6-dimethylphenyl)-2-((4-(methylsulfonyl)phenyl)amino)thiazole-5-carboxamide] | < 0.05 | > 11 | X (100-<1000 fold)
Cc1ccc(O)c(C)c1NC(=O)c1cnc(Nc2ccc(F)cc2F)s1 [BAA-277, 2-((2,4-difluorophenyl)amino)-N-(3-hydroxy-2,6-dimethylphenyl)thiazole-5-carboxamide] | 0.05 to 1 | > 11 | X (100-<1000 fold)
Cc1ccc(O)c(C)c1NC(=O)c1cnc(Nc2ccc(C(F)(F)F)cc2)s1 [BAA-278, N-(3-hydroxy-2,6-dimethylphenyl)-2-((4-(trifluoromethyl)phenyl)amino)thiazole-5-carboxamide] | 1 to 11 | > 11 | W (10-<100 fold)
Cc1ccc(O)c(C)c1NC(=O)c1cnc(Nc2ccc(C(F)(F)F)cn2)s1 [BAA-280, N-(3-hydroxy-2,6-dimethylphenyl)-2-((5-(trifluoromethyl)pyridin-2-yl)amino)thiazole-5-carboxamide] | 0.05 to 1 | > 11 | Y (1000-5000 fold)
Cc1ccc(O)c(C)c1NC(=O)c1cnc(Nc2ccc(F)c(C#N)c2)s1 [BAA-282, 2-((3-cyano-4-fluorophenyl)amino)-N-(3-hydroxy-2,6-dimethylphenyl)thiazole-5-carboxamide] | 1 to 11 | > 11 | W (10-<100 fold)

Results, then the compound that gave them:

IC50 (Human PKMYT1) [µM] | IC50 (WEE1) [µM] | PKMYT1 vs. WEE1 selectivity (WEE1) | SMILES
< 0.05 | > 11 | Y (1000-5000 fold) | Cc1ccc(O)c(C)c1NC(=O)c1cnc(Nc2cccc(S(C)(=O)=O)c2)s1 [BAA-276, N-(3-hydroxy-2,6-dimethylphenyl)-2-((3-(methylsulfonyl)phenyl)amino)thiazole-5-carboxamide]
< 0.05 | > 11 | Y (1000-5000 fold) | Cc1ccc(O)c(C)c1NC(=O)c1cnc(Nc2ncc(C(F)(F)F)cn2)s1 [BAA-279, N-(3-hydroxy-2,6-dimethylphenyl)-2-((5-(trifluoromethyl)pyrimidin-2-yl)amino)thiazole-5-carboxamide]
0.05 to 1 | > 11 | X (100-<1000 fold) | Cc1ccc(O)c(C)c1NC(=O)c1cnc(Nc2ccc(C(C)(C)C)cc2)s1 [BAA-281, 2-((4-(tert-butyl)phenyl)amino)-N-(3-hydroxy-2,6-dimethylphenyl)thiazole-5-carboxamide]
1 to 11 | > 11 | W (10-<100 fold) | Cc1ccc(O)c(C)c1NC(=O)c1cnc(Nc2ccc(C#N)c(F)c2)s1 [BAA-283, 2-((4-cyano-3-fluorophenyl)amino)-N-(3-hydroxy-2,6-dimethylphenyl)thiazole-5-carboxamide]
1 to 11 | > 11 | W (10-<100 fold) | Cc1ccc(O)c(C)c1NC(=O)c1cnc(Nc2cccc(S(=O)(=O)C(F)(F)F)c2)s1 [BAA-284, N-(3-hydroxy-2,6-dimethylphenyl)-2-((3-((trifluoromethyl)sulfonyl)phenyl)amino) thiazole-5-carboxamide]
